Assay results published in patent publication US5583144A, “Methods for treating erectile impotence” (priority 1995, dated 1996).
“Also recorded” adds a separate entry of the source.

How the values were obtained:
[1] = system: alpha-adrenergic receptor; test: Inhibition of epinephrine-induced pressor response (arterial blood pressure) in pentobarbital anesthetized rats; format: in vivo, Sprague-Dawley rats; conditions: for duration of action relative to that of phentolamine: 0.25 mg/kg iv each, four rats per treatment, alpha-adrenergic antagonism / duration of vasodilation (FIG. 1); for estimated pharmacologic half-life on alpha-adrenergic receptor antagonism: epinephrine 1.0 ug/kg iv challenge, pentobarbital anesthetized rats; for alpha-adrenergic antagonism in vivo: inhibition of the pressor effect of epinephrine challenge
Method: (§1) Eight male normotensive Sprague-Dawley rats weighing between 350 to 380 grams were used in these studies. Animals were fed and watered ad libitum in a temperature (22 degrees and humidity (50%) controlled vivarium with a light dark cycle of 12 hours.
Epinephrine, D,L-piperoxan, and phentolamine (Sigma Chemical Company; St. Louis, Mo.) were solubilized in 0.9% saline on the day of the experiment. All doses were calculated on free base weight. The rats were anesthetized with pentobarbital sodium 60 mg/kg i.p. All animals were checked for depth of anesthesia before proceeding further using the corneal reflex and toe pinch response as indicators. The ventral surface of the neck was shaven and a longitudinal incision, approximately 2 cm long, was made on the ventral surface. The trachea was isolated and intubated (PE205; Intramedic, Parsippany, N.J.) . The left internal jugular vein and right common carotid artery were cannulated (PE50; Clay Adams, Becton Dickinson, Parsippany, N.J.). The cannulas were heparinized (Sodium heparin 60 units/ml) and inserted approximately 1.5 cm into the vessels and were secured with 4-0 silk suture. The animal was placed in the supine position, and body temperature was maintained via a heat lamp. A short piece of hypodermic tubing was inserted into the venous and arterial cannulas, and each cannula connected to a three way stopcock via a section of PE50 and 23 gauge Luer stub. The jugular line was used for administration of epinephrine and either piperoxan or phentolamine. In order to directly record arterial blood pressure, the carotid arterial line was connected to an electronic blood pressure transducer (P23db; Gould Electronics, Oxnard, Calif.). The blood pressure transducer was connected to a Gould transducer amplifier and a thermal recorder for the purpose of recording the arterial blood pressure waveform. After a stable blood pressure baseline was obtained, epinephrine was injected intravenously at a dose of 1.0 ug/kg for the purpose of inducing an alpha-adrenergic receptor mediated pressor response. This response was quantified by measurement of the arterial blood pressure waveform. After the epinephrine-induced pressor effect returned to baseline, either phentolamine or piperoxan was administered intravenously at a dose of 0.25 mg/kg. After dosing with piperoxan and phentolamine, epinephrine injections were repeated at 5, 10, 15, 20, 30, 40, 50, and 60 minutes post dosing. Arterial blood pressure was measured continuously during the length of the experiments.
Percent inhibition of the epinephrine-induced pressor effect by both phentolamine and piperoxan was used as a measure of inhibition of the alpha-adrenergic receptor. As stated previously, inhibition of the alpha receptor results in vasodilatation. Percent inhibition was calculated by the following formula: [formula]

[2] = in water and acid solutions; cited from earlier work
[3] = cited from earlier work
[4] = system: vascular alpha-adrenergic receptors; conditions: epinephrine 1.0 ug/kg iv; all rats tested
Method: as §1
Epinephrine, D,L-piperoxan, and phentolamine (Sigma Chemical Company; St. Louis, Mo.) were solubilized in 0.9% saline on the day of the experiment. All doses were calculated on free base weight. The rats were anesthetized with pentobarbital sodium 60 mg/kg i.p. All animals were checked for depth of anesthesia before proceeding further using the corneal reflex and toe pinch response as indicators. The ventral surface of the neck was shaven and a longitudinal incision, approximately 2 cm long, was made on the ventral surface. The trachea was isolated and intubated (PE205; Intramedic, Parsippany, N.J.) . The left internal jugular vein and right common carotid artery were cannulated (PE50; Clay Adams, Becton Dickinson, Parsippany, N.J.). […] This response was quantified by measurement of the arterial blood pressure waveform. […] Arterial blood pressure was measured continuously during the length of the experiments.
Percent inhibition of the epinephrine-induced pressor effect by both phentolamine and piperoxan was used as a measure of inhibition of the alpha-adrenergic receptor. […] Percent inhibition was calculated by the following formula: [formula]

erectile dysfunction = conditions: cited from earlier work; for priapism or extremely long erections following treatment for erectile dysfunction: men treated for erectile dysfunction, literature; for duration of action / erections: agents used to treat impotence, causing pain and general discomfort

With `c1ccc2c(c1)OCC(CN1CCCCC1)O2` (racemic) [piperoxan] the “duration of action relative to that of phentolamine” value [1] was “approximately one-half”, the “duration of action relative to that of phentolamine” value ([1]; listed as Piperoxan) was “approximately half” and the “biological half-life / duration of action compared with phentolamine” value ([1]; 0.25 mg/kg iv, FIG. 1) was “much shorter biological half-life; also recorded: shorter duration of action than phentolamine”. The “estimated pharmacologic half-life on alpha-adrenergic receptor antagonism” value ([1]; 0.25 mg/kg iv) was “approximately 30 minutes”, the “alpha-adrenergic antagonism in vivo” value ([1]; 0.25 mg/kg iv) was “inhibitory to the pressor-induced effect of epinephrine challenge; also recorded: alpha-adrenergic antagonist in vivo” and the solubility [2] was “freely soluble”. For the same compound, the “storage stability of aqueous solution” value ([3]; aqueous solution at pH 5.0, room temperature) was “many months of storage at room temperature”, the “stability of aqueous solution to autoclaving” value ([3]; aqueous solution at pH 5.0) was “stable to autoclaving” and the hygroscopicity of crystals ([3]; crystals) was “not hygroscopic”. For the same compound, the stability of crystals ([3]; crystals, light, air, normal storage temperatures) was “stable to light, air, and normal storage temperatures”.
In the case of `CNC[C@H](O)c1ccc(O)c(O)c1` [epinephrine], the “arterial blood pressure change” value [4] is reported as “marked increase in arterial blood pressure in all rats tested”.
In the case of `COc1ccc(Cc2nccc3cc(OC)c(OC)cc23)cc1OC` [papaverine], the “priapism or extremely long erections following treatment for erectile dysfunction” value (erectile dysfunction) is listed as “priapism or extremely long erections”.
In the case of `CC(COc1ccccc1)N(CCCl)Cc1ccccc1` (stereo not shown) [phenoxybenzamine], the “priapism or extremely long erections following treatment for erectile dysfunction” value (erectile dysfunction) is given as “priapism or extremely long erections”.
For `Cc1ccc(N(CC2=NCCN2)c2cccc(O)c2)cc1` [phentolamine], the “estimated pharmacologic half-life on alpha-adrenergic receptor antagonism” value ([1]; 0.25 mg/kg iv) is given as “greater than 60 minutes”, the “alpha-adrenergic antagonism in vivo” value ([1]; 0.25 mg/kg iv) is given as “inhibitory to the pressor-induced effect of epinephrine challenge” and the “duration of action / erections” value (erectile dysfunction) is given as “extremely long duration of action, resulting in erections which last several hours”. For the same compound, the “priapism or extremely long erections following treatment for erectile dysfunction” value (erectile dysfunction) was “priapism or extremely long erections”.
In the case of `O=c1n(CCCN2CCN(c3cccc(Cl)c3)CC2)nc2ccccn12` [trazodone], the “priapism or extremely long erections following treatment for erectile dysfunction” value (erectile dysfunction) is given as “priapism or extremely long erections”.
In the case of `COC(=O)[C@@H]1[C@H]2C[C@H]3c4[nH]c5ccccc5c4CCN3C[C@@H]2CC[C@@H]1O` [yohimbine], the “duration of action / erections” value (erectile dysfunction) is given as “extremely long duration of action, resulting in erections which last several hours”.
